Experimental data as given in patent US12391939B2, “Genetically-encoded bicyclic peptide libraries” (THE GOVERNORS OF THE UNIVERSITY OF ALBERTA, priority 2018, dated 2025).
Numbered stars: 1 amine (or outer) side, 2 acyl side, 3 side chain; on linkers, the order of the positions; unused ones are H or OH. Bridge positions count the residues as written; N and C are the ends. Ends that are not written are not given here. Peptide text beside a SMILES is read from it. X1 = O=C(C=NOCCCCCCOc1cc(C[*:2])cc(C[*:3])c1)[*:1]; X2 = O=C(C=NOCc1cc(C[*:2])cc(C[*:3])c1)[*:1]; TSL6 = not defined here

Experiments:
[1] = target: T1, Nodal (Homo sapiens, UniProt Q96S42); experiment: Inhibition of Nodal-induced Smad2 phosphorylation in P19 cells (Western blot, anti-phospho Smad antibody); format: cell-based; details: for ability to antagonize the signaling function of protein Nodal: carcinoma cells
T1 construct: host or cells: added to embryonic carcinoma P19 cells
T1 sequence (Q96S42 238-347): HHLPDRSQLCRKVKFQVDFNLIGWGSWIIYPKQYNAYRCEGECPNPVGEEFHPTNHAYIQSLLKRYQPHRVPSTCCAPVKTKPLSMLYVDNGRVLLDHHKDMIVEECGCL
Procedure: To validate the binding ability of the predicted ligands, we tested the ability of the bicycles to inhibit a known signaling event induced by Nodal. Specifically, we employed Western blot with anti-phospho Smad antibody to detect Nodal-induced phosphorylation of effector protein Smad2 in embryonic carcinoma P19 cells. FIG. 17a describes that treatment of P19 cells with 100 ng/mL Nodal for 1 hour in Dulbecco's Modified Eagles Media (DMEM) supplemented with 2.5% fetal bovine serum (FBS)+7.5% bovine serum albumin (BSA) induces increase in pSmad2 intensity. Nodal-induced increase in pSmad is abrogated when P19 cells are incubated with 100 ng/mL Nodal and known kinase inhibitors SB-431542. […] The bicyclic peptides serve as antagonists of Nodal at 100 micromolar concentration.

[2] = in vitro; details: for remaining at 5 h: isolated enzyme pronase
Procedure: The mixture was analyzed by ion-selective LCMS. […] Linear, disulfide and two bicycle compounds made from TSL-1 and TSL-6 linker were incubated with Pronase™ for the indicated period of time (up to 5 hours). The reaction was diluted and analyzed by Ion selective MS-UPLC. The numbers indicate % of intact compound remaining after 5 hours of digestion.
In another rigorous stability test, an aggressive cocktail of endo- and exoproteases (Pronase) were used to digest linear sequence [sequence]

Compound | remaining at 5 h [2] | further results
SPCQRGHMFC (linker (positions not given here) via TSL6; reading uncertain; also: bicyclised with TSL6 linker) [bicyclic peptide 7] | – | ability to antagonize the signaling function of protein Nodal [1]: have the ability to antagonize
CC(C)C[C@H](NC(=O)[C@H](Cc1ccc(O)cc1)NC(=O)[C@H](CS)NC(=O)[C@H](CCC(=O)O)NC(=O)[C@H](CCCNC(=N)N)NC(=O)[C@H](Cc1ccc(O)cc1)NC(=O)[C@H](CC(=O)O)NC(=O)[C@H](Cc1c[nH]c2ccccc12)NC(=O)[C@@H](N)CO)C(=O)N[C@@H](CCC(=O)O)C(=O)N[C@@H](CS)C(=O)O [reference compound] (H-SWDYRECYLEC-OH; N-terminus and C-terminus assumed) | 0.4 ± 0.1% | –
CC(C)C[C@@H]1NC(=O)[C@H](Cc2ccc(O)cc2)NC(=O)[C@@H](NC(=O)[C@H](CCC(=O)O)NC(=O)[C@H](CCCNC(=N)N)NC(=O)[C@H](Cc2ccc(O)cc2)NC(=O)[C@H](CC(=O)O)NC(=O)[C@H](Cc2c[nH]c3ccccc23)NC(=O)[C@@H](N)CO)CSSC[C@@H](C(=O)O)NC(=O)[C@H](CCC(=O)O)NC1=O [reference compound] (H-SWDYRECYLEC-OH; disulfide 7-11; N-terminus and C-terminus assumed) | 0.9 ± 0.4% | –
NC(=O)c1ccc(-c2nc(-c3ccc4c(c3)OCO4)c(-c3ccccn3)[nH]2)cc1 [SB-431542, reference compound] | – | Nodal-induced increase in pSmad with known kinase inhibitor ([1]; P19 cells, 100 ng/mL Nodal, inhibitor concentration not given): abrogated
SYCKRAHKNC (linker (positions not given here) via TSL6; reading uncertain; also: bicyclised with TSL6 linker) [bicyclic peptide 11] | – | ability to antagonize the signaling function of protein Nodal [1]: have the ability to antagonize
CC(C)C[C@@H]1NC(=O)[C@H](Cc2ccc(O)cc2)NC(=O)[C@@H]2CSCc3cc(cc(c3)OCCCCCCON=CC(=O)N[C@@H](Cc3c[nH]c4ccccc34)C(=O)N[C@@H](CC(=O)O)C(=O)N[C@@H](Cc3ccc(O)cc3)C(=O)N[C@@H](CCCNC(=N)N)C(=O)N[C@@H](CCC(=O)O)C(=O)N2)CSC[C@@H](C(=O)O)NC(=O)[C@H](CCC(=O)O)NC1=O (WDYRECYLEC-OH; linker N-6-10 via X1; C-terminus assumed) | 68 ± 14% | –
CC(C)C[C@@H]1NC(=O)[C@H](Cc2ccc(O)cc2)NC(=O)[C@@H]2CSCc3cc(cc(c3)CSC[C@@H](C(=O)O)NC(=O)[C@H](CCC(=O)O)NC1=O)CON=CC(=O)N[C@@H](Cc1c[nH]c3ccccc13)C(=O)N[C@@H](CC(=O)O)C(=O)N[C@@H](Cc1ccc(O)cc1)C(=O)N[C@@H](CCCNC(=N)N)C(=O)N[C@@H](CCC(=O)O)C(=O)N2 (WDYRECYLEC-OH; linker N-6-10 via X2; C-terminus assumed) | 82 ± 13% | half-life ([2]; Streptomyces griseus): ~24 h
